Experimental data taken from article PMC8949187, “Study of Structure–Activity Relationships of the Marine Alkaloid Fascaplysin and Its Derivatives as Potent Anticancer Agents” (Marine Drugs, 2022).

Assays:
[1] = system: 22Rv1 cells; test: MTT assay, 22Rv1 cells; assay type: cell-based, human; conditions: Homo sapiens, 22Rv1; prostate cancer cells; 48 h of treatment; mean ± SD
Description: (§1) The human prostate cancer cell lines PC-3, DU145, 22Rv1 and LNCaP, as well as human prostate non-cancer cell line PNT2 were purchased from ATCC (Manassas, VA, USA). HEK 293T (human embryonic kidney cells) and MRC-9 (human fibroblast cells) cell lines were purchased from ECACC (Salisbury, UK). […] Authentication of all cell lines used was recently performed by a commercial service (Multiplexion GmbH, Heidelberg, Germany).
(§2) Cells were cultured as monolayers at 37 °C in a humidified atmosphere with 5% (v/v) CO2 in the correspondent culture medium: 10% FBS/RPMI medium (RPMI medium supplemented with Glutamax^TM-I (gibco® Life technologies^TM, Paisley, UK) containing 10% fetal bovine serum (FBS, gibco® Life technologies^TM) and 1% penicillin/streptomycin (Invitrogen)) for PNT2, LNCaP, 22Rv1, PC-3 and DU145 and cells; 10% FBS/DMEM medium (DMEM medium supplemented with Glutamax^TM-I (gibco® Life technologies^TM) containing 10% FBS and 1% penicillin/streptomycin (gibco® Life technologies^TM)) for MRC-9 and HEK 293 cells. Cells were continuously kept in culture for a maximum of 3 months, and were regularly checked for stable phenotype and mycoplasma infection.
(§3) Effect of the drugs on cell viability in terms of metabolic activity was assessed by MTT assay, as previously reported. Cells were pre-incubated overnight in 96-well plates (6 × 10^3 cells/well in 100 μL/well) in the correspondent culture media. Then, the medium was replaced with fresh 10% FBS/RPMI medium containing the investigated compounds (100 μL/well), and cells were incubated for 48 h, unless otherwise stated. Next, 10 μL/well of (3-(4,5-dimethylthiazol-2-yl)-2,5-diphenyltetrazolium bromide) reagent (MTT, 5 mg/mL) was added. After 2–4 h of incubation, the media was aspirated and the plates were dried. Then, 50 μL/well of DMSO was added to each well and the cell viability was measured using an Infinite F200PRO reader (TECAN, Männedorf, Switzerland). Results were calculated using the GraphPad Prism software v.9.1.1 (GraphPad Software, San Diego, CA, USA) and are represented as IC50 of the compounds calculated using the cells treated with the solvent alone as a control.

[2] = system: 22Rv1 cells; test: Trypan blue-based viability assay; assay type: cell-based, human; conditions: Homo sapiens, 48 h of treatment, mean ± SD, read-out: IC50, trypan blue staining assay
Description: The effect of the drugs on cell viability in terms of cellular membrane integrity was evaluated by the trypan blue exclusion assay as described before. In brief, cells (0.2 × 10^6 cells/well) were seeded in 6-well plates and incubated overnight, and the media was replaced with fresh media (1 mL/well) containing drugs at indicated concentrations. After treatment for 48 h, the cells were harvested by trypsinization, stained with trypan blue and the viability was measured using an automatic Beckman Coulter Vi-CELL (Beckman Coulter, Krefeld, Germany). Trypan blue-positive cells were assumed to have damaged cellular membrane (i.e., dead), whereas trypan blue-negative cells were considered to have an intact cellular membrane (i.e., alive).

[3] = system: MRC-9 cells; test: MTT assay, MRC-9 cells; assay type: cell-based, human; conditions: Homo sapiens, MRC9; non-cancer cells; 48 h of treatment; mean ± SD
Description: as §1, §2, §3

[4] = system: 22Rv1 cells; test: DNA fragmentation (apoptosis, sub-G1), flow cytometry with PI staining; assay type: cell-based, human; conditions: treated at IC50 (MTT assay) for 48 h, mean ± SD
Description: (§4) The effects on cell cycle progression and DNA fragmentation were analyzed by flow cytometry using PI staining, as described before. Cells (2 × 10^5 cells/well) were pre-incubated overnight in 6-well plates and then treated with the investigated drugs in fresh culture media (2 mL/well) for 48 h. Cells were harvested by trypsinization, fixed in 70% EtOH, stained with PI solution and analyzed by FACS Calibur (BD Bioscience, San Jose, CA, USA). The results were quantified using BD Bioscience Cell Quest Pro v.5.2.1. software (BD Bioscience). The cells appearing as a sub-G1 population (containing fragmented DNA) were considered to be apoptotic.

[5] = system: DU145 cells; test: MTT assay, DU145 cells; assay type: cell-based, human; conditions: Homo sapiens, DU-145; prostate cancer cells; 48 h of treatment; mean ± SD
Description: as §1, §2, §3

[6] = system: PNT2 cells; test: MTT assay, PNT2 cells; assay type: cell-based, human; conditions: Homo sapiens, PNT2; non-cancer cells; 48 h of treatment; mean ± SD
Description: as §1, §2, §3

[7] = system: non-cancer cell lines versus cancer cell lines; test: Selectivity index from MTT IC50s; assay type: cell-based, human; conditions: for Selectivity index, IC50 (non-prostate) / IC50 (prostate): mean IC50 MRC-9 and HEK-293 versus mean IC50 prostate cancer cell lines plus PNT2; for Selectivity index, IC50 (non-prostate) / IC50 (prostate) / Selectivity index, IC50 (non-cancer) / IC50 (cancer): MTT; for Selectivity index, IC50 (non-cancer) / IC50 (cancer): mean IC50 non-cancer cell lines versus mean IC50 cancer cell lines
Description: as §3, with “Next, SAR analysis was performed to identify the structural elements that are beneficial for anticancer activity of the fascaplysin-related molecules. Considering the complex and heterogeneous nature of tumors even within the same patient, we used calculated mean IC50 values of each drug in all prostate cancer cells for further analysis (Figure 2A). To identify the drug candidates with the highest therapeutic potential, the selectivity index (SI) was calculated as mean IC50 in non-cancer cells versus mean IC50 in cancer cells (Figure 2B), or as a mean IC50 in non-cancer (MRC-9 and HEK293) cells versus mean IC50 in prostate cells (cancer PC-3, 22Rv1, DU145, LNCaP and non-cancer PNT2 cells) (Figure 2C). Finally, to estimate the effects on cellular metabolism, we compared the activity evaluated by using trypan blue assay versus MTT assay (Figure 2D). Effect” for “Effect”, “2-4” for “2–4”, “F200PRO” left out

[8] = system: double-stranded calf thymus DNA; test: Thiazole orange displacement (DNA intercalation) assay; assay type: binding; conditions: 1 µM calf thymus DNA base pairs, 2 µM thiazole orange; 7 min at room temperature; mean ± SD
Description: DNA intercalation activity of the compounds was calculated as an ability to displace thiazole orange (TO) from the double-stranded DNA. For this experiment, a mixture (100 µL) containing 1 µM of double-stranded calf thymus DNA (recalculated as a concentration of base pairs) and 2 µM of thiazole orange (TO) solved in water was prepared. Then, the investigated compounds were added up to final concentrations of 0.39–25 µM; DMSO concentration in the samples was <0.02%. Propidium iodide (PI, positive control) was added up to final concentrations of 0.039–2.5 uM. After 7 min of incubation at room temperature, TO fluorescence was monitored using a multimodal plate reader TECAN Spark (Tecan Group Ltd., Männedorf Switzerland) at the excitation λ = 480 nm; fluorescence was recorded at λ = 530 nm. The bandwidth was 10 nm. The concentration of the drug that caused a decrease in TO fluorescence by 50% (EC50) was determined by approximating the experimental data using a non-linear regression algorithm and calculated using the GraphPad Prism software v.9.1.1 (GraphPad Software, San Diego, CA, USA).

[9] = system: LNCaP cells; test: MTT assay, LNCaP cells; assay type: cell-based, human; conditions: Homo sapiens, LNCaP; prostate cancer cells; 48 h of treatment; mean ± SD
Description: as §1, §2, §3

[10] = system: prostate cancer cell lines (PC-3, 22Rv1, DU145 and LNCaP); test: MTT assay, mean over four prostate cancer cell lines; assay type: cell-based; conditions: Homo sapiens; mean of MTT IC50 in PC-3, 22Rv1, DU145 and LNCaP; from Table S1 values; read-out: mean IC50 in cancer cells
Description: as §3, with “Next, SAR analysis was performed to identify the structural elements that are beneficial for anticancer activity of the fascaplysin-related molecules. Considering the complex and heterogeneous nature of tumors even within the same patient, we used calculated mean IC50 values of each drug in all prostate cancer cells for further analysis (Figure 2A). To identify the drug candidates with the highest therapeutic potential, the selectivity index (SI) was calculated as mean IC50 in non-cancer cells versus mean IC50 in cancer cells (Figure 2B), or as a mean IC50 in non-cancer (MRC-9 and HEK293) cells versus mean IC50 in prostate cells (cancer PC-3, 22Rv1, DU145, LNCaP and non-cancer PNT2 cells) (Figure 2C). Finally, to estimate the effects on cellular metabolism, we compared the activity evaluated by using trypan blue assay versus MTT assay (Figure 2D). Effect” for “Effect”, “2-4” for “2–4”, “F200PRO” left out

[11] = system: PC-3 cells; test: MTT assay, PC-3 cells; assay type: cell-based, human; conditions: Homo sapiens, PC-3; prostate cancer cells; 48 h of treatment; mean ± SD
Description: as §1, §2, §3

[12] = system: HEK-293 cells; test: MTT assay, HEK-293 cells; assay type: cell-based, human; conditions: Homo sapiens, HEK293; non-cancer cells; 48 h of treatment; mean ± SD
Description: as §1, §2, §3

[13] = system: 22Rv1 cells; test: Cell cycle progression, flow cytometry with PI staining; assay type: cell-based, human; conditions: treated at IC50 (MTT assay) for 48 h
Description: as §4

Structure (SMILES) | IC50 [1] [nM] | IC50 [2] [nM] | IC50 [3] [nM] | % of sub-G1 apoptotic cells (at IC50) [4] [%] | IC50 [5] [nM] | IC50 [6] [nM] | Selectivity index (SI), for Figure 2B,C ([7]; both SI definitions (Figure 2B,C)) | Selectivity index, IC50 (non-prostate) / IC50 (prostate) [7] | Selectivity index, IC50 (non-cancer) / IC50 (cancer) [7] | EC50 [8] [nM] | IC50 [9] [nM] | IC50 [10] [nM] | IC50 [11] [nM] | IC50 [12] [nM] | Cell cycle arrest (at IC50) [13]
O=C1c2ccccc2-[n+]2ccc3c([nH]c4ccc(I)cc43)c21.[Cl-] [Compound 7, 12,13-dihydro-9-iodo-13-oxopyrido[1,2-a:3,4-b’]diindol-5-ium chloride] | 550 ± 71 | 80 ± 4 | 924 ± 132 | 6.3±0.906 | 319 ± 75 | 145 ± 66 | < 1 | 0.89 | 0.53 | 2140 ± 100 | 171 ± 35 | 1180 | 3670 ± 200 | 809 ± 164 | 
O=C1c2cc(Br)ccc2-[n+]2ccc3c([nH]c4ccc(Cl)cc43)c21.[Cl-] [Compound 12, 12,13-dihydro-2-bromo-9-chloro-13-oxopyrido[1,2-a:3,4-b’]diindol-5-ium chloride] | 2890 ± 890 | 1640 ± 850 | 36300 ± 9510 | 6.95±0.901 | 2080 ± 580 | 3330 ± 806 |  | 3.82 | 2.58 |  | 2700 ± 173 | 5230 | 13200 ± 2870 | 750 ± 65 | No
O=C1c2ccc(Br)cc2-[n+]2ccc3c([nH]c4ccccc43)c21 [Compound 3, 3-bromofascaplysin] | 417 ± 60 | 240 ± 41 | 2300 ± 870 | 23.3±9.19 | 1510 ± 130 | 727 ± 60 |  | 0.59 | 0.41 | 700 ± 30 | 1250 ± 380 | 3300 | 10000 ± 6750 | 1010 ± 71 | 
O=C1c2cc(Br)ccc2-[n+]2ccc3c([nH]c4ccccc43)c21.[Cl-] [Compound 4, 12,13-dihydro-2-bromo-13-oxopyrido[1,2-a:3,4-b’]diindol-5-ium chloride] | 529 ± 69 | 260 ± 54 | 4270 ± 662 | 8.83±0.7 | 1900 ± 634 | 820 ± 76 |  | 1.92 | 1.34 | 1360 ± 30 | 349 ± 81 | 1550 | 3400 ± 1890 | 1100 ± 74 | 
CCc1c[n+]2c(c3[nH]c4ccccc4c13)C(=O)c1ccccc1-2.[Cl-] [Compound 17, 12,13-dihydro-7-ethyl-13-oxopyrido[1,2-a:3,4-b’]diindol-5-ium chloride] | 271 ± 46 | 375 ± 90 | 1450 ± 645 | 13.4±0.92 | 2370 ± 450 | 490 ± 90 |  | 1.25 | 0.92 | 1030 ± 30 | 611 ± 47 | 950 | 564 ± 98 | 700 ± 211 | 
O=C1c2ccccc2-[n+]2cc(-c3ccccc3)c3c([nH]c4ccccc43)c21.[Cl-] [Compound 16, 12,13-dihydro-7-phenyl-13-oxopyrido[1,2-a:3,4-b’]diindol-5-ium chloride] | 185 ± 39 | 172 ± 74 | 596 ± 110 | 7±1.4 | 491 ± 68 | 434 ± 21 |  | 1.73 | 1.73 | 1160 ± 20 | 141 ± 58 | 300 | 391 ± 84 | 538 ± 69 | 
O=C1c2ccccc2-[n+]2ccc3c([nH]c4cc(Br)ccc43)c21 [Compound 5, 10-Bromofascaplysin] | 500 ± 67 | 482 ± 91 | 20300 ± 5400 | 3.63±0.844 | 1270 ± 206 | 302 ± 90 |  | 2.57 | 1.41 | 2010 ± 10 | 460 ± 76 | 5010 | 17800 ± 1940 | 649 ± 78 | 
